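48-hour exposure; five concentrations; linearly interpolated endpoints. GI50 is the concentration that inhibits growth by half. TGI: total growth inhibition.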 A value given as a limit tells only on which side of the number the result lay.

Test systems include A549 NSCLC; ACHN renal; COLO 205 colon; HOP-62 NSCLC; RPMI-8226 leukemia; U251 CNS; UO-31 renal; MDA-MB-231 breast; MDA-MB-435; MDA-N.
Common to all, as to test: NCI-60 cell line screen, 48 h

`CS(=O)(=O)OCCCOS(C)(=O)=O`: the TGI in the assay with A549 NSCLC, with ACHN renal, in the assay on COLO 205 colon, in the assay with HOP-62 NSCLC, with RPMI-8226 leukemia and with U251 CNS was above 100 µM throughout. Besides, in the assay on UO-31 renal, the TGI is above 100 µM.

On to `CC[C@@]12C=CC(=S)N(CCSc3ccccc3)[C@@H]1c1c(n(S(=O)(=O)c3ccc(OC)cc3)c3ccccc13)CC2`, for which the TGI with A549 NSCLC, in the assay on COLO 205 colon, in the assay on HOP-62 NSCLC, with MDA-MB-231 breast, in the assay on MDA-MB-435 and with MDA-N was above 100 µM in each case. In addition, the TGI in the assay with U251 CNS and in the assay on UO-31 renal was above 100 µM in each case.

With `COc1cc(C2c3cc4c(cc3[C@@H](Nc3cccc([N+](=O)[O-])c3)C3COC(=O)[C@H]23)OCO4)cc(OC)c1O` (stereo partly specified), the TGI with A549 NSCLC is 4.38 µM; in the assay with COLO 205 colon, 18.1 µM; with HOP-62 NSCLC it was 3.31 µM; with RPMI-8226 leukemia it was 32.1 µM; with UO-31 renal, above 29 µM.

Turning to `Oc1cccc(-c2cn3cc(C(F)(F)F)ccc3n2)c1`, the TGI in the assay with A549 NSCLC, with ACHN renal, with COLO 205 colon, in the assay with HOP-62 NSCLC, in the assay on MDA-MB-231 breast and with MDA-MB-435 was above 100 µM in each case. The TGI with MDA-N, with U251 CNS and in the assay with UO-31 renal was above 100 µM in each case.

As for `Oc1ccc(C#CCOc2ccccc2)cc1CNCCN(Cc1ccccn1)Cc1ccccn1`, the GI50 in the assay with A549 NSCLC is 1.33 µM; in the assay on ACHN renal it was 1.16 µM; in the assay with COLO 205 colon, 2.8 µM; in the assay on HOP-62 NSCLC, 0.762 µM; in the assay on MDA-MB-231 breast, 1.38 µM; with MDA-MB-435, 1.82 µM. In addition, the figures for the GI50 in the assay with RPMI-8226 leukemia, in the assay with U251 CNS and in the assay on UO-31 renal were 1.53 µM, 0.668 µM and 1.02 µM, respectively. The TGI with A549 NSCLC was 3.47 µM; with ACHN renal it was 2.38 µM; in the assay with COLO 205 colon it was 9.74 µM; in the assay with HOP-62 NSCLC, 2.96 µM; in the assay on MDA-MB-231 breast it was 2.96 µM; in the assay with MDA-MB-435 it was 3.44 µM. Further, the figures for the TGI in the assay on RPMI-8226 leukemia, in the assay on U251 CNS and in the assay with UO-31 renal were 6.2 µM, 5.16 µM and 2.5 µM, respectively.

For the compound `COc1ccc(Oc2nc(C#CC(C)(C)O)nc(Oc3ccc(OC)cc3)n2)cc1`, the TGI with A549 NSCLC stood at 28.4 µM; with ACHN renal it was 3.13 µM; with COLO 205 colon, 16.9 µM; with HOP-62 NSCLC, 62.1 µM; in the assay with MDA-MB-231 breast, 9.93 µM; with MDA-MB-435 it was 17 µM. In addition, the TGI came to 21.6 µM in the assay with MDA-N, 15.6 µM with U251 CNS and 2.88 µM in the assay with UO-31 renal.

For `O=C(OCc1ccccc1)N1CCN(C(=O)OCc2ccccc2)CCN(C(=O)OCc2ccccc2)CCN(C(=O)OCc2ccccc2)CCN(C(=O)OCc2ccccc2)CC1`, the TGI in the assay on A549 NSCLC, in the assay on ACHN renal, in the assay on COLO 205 colon, in the assay on HOP-62 NSCLC, with MDA-MB-231 breast and with MDA-MB-435 was above 100 µM throughout. Besides, the TGI in the assay on MDA-N, in the assay on U251 CNS and with UO-31 renal was above 100 µM in each case.

Take `COC(=O)[C@H](Cc1ccccc1)NP(=O)(O)OCC1C=CC(n2cc(C)c(=O)[nH]c2=O)O1` (stereo partly specified): the TGI in the assay on A549 NSCLC is above 100 µM; with ACHN renal, 62.6 µM; in the assay with COLO 205 colon it was above 100 µM; with HOP-62 NSCLC it was above 100 µM; in the assay with MDA-MB-231 breast, above 100 µM; in the assay on MDA-MB-435, above 100 µM. In addition, the TGI in the assay on RPMI-8226 leukemia, with U251 CNS and in the assay on UO-31 renal was above 100 µM throughout.

In the case of `CC(Cc1ccccc1)NC1=NCCO1` (stereo unspecified), the TGI in the assay on A549 NSCLC was above 100 µM; in the assay with ACHN renal it was above 100 µM; in the assay with COLO 205 colon, 34.5 µM; with HOP-62 NSCLC it was above 100 µM; with MDA-MB-231 breast it was 30.1 µM; with MDA-N, 72.3 µM. Further, the TGI in the assay on RPMI-8226 leukemia was 67.3 µM; in the assay on U251 CNS, 58 µM; with UO-31 renal it was 50.4 µM.

Consider `O=C1c2ccccc2-c2nc(/C=C/c3ccccc3)cc3c2c1nc1ccccc13`, for which the TGI in the assay with A549 NSCLC is above 100 µM; with ACHN renal, above 100 µM; in the assay with COLO 205 colon, 69.8 µM; with HOP-62 NSCLC, 76.3 µM; with MDA-MB-231 breast, 74 µM; in the assay with MDA-MB-435, 26.9 µM. For the same compound, the values for the TGI in the assay with RPMI-8226 leukemia, in the assay on U251 CNS and in the assay on UO-31 renal were above 100 µM, 57 µM and above 100 µM, respectively.

Consider `CCN(CC)C(=O)N1CN(c2ccccc2)C2(CCN(CCCSc3ccc(F)cc3)CC2)C1=O`, for which the TGI in the assay with A549 NSCLC was above 100 µM; in the assay on ACHN renal, 15.8 µM; in the assay on MDA-MB-435, 42.5 µM; with MDA-N it was 21.3 µM; in the assay with RPMI-8226 leukemia, 41.6 µM; with U251 CNS, 26.8 µM. In the assay with UO-31 renal, the TGI is 22.6 µM.

Turning to `CCN(CC)CCCC(C)NC(=O)c1ccc2c(c1)C(=O)c1ccccc1C2=O` (stereo unspecified), the TGI with A549 NSCLC stood at 57.4 µM; in the assay on ACHN renal, 38.2 µM; in the assay with COLO 205 colon it was 23.3 µM; in the assay with HOP-62 NSCLC, 69.9 µM; in the assay with RPMI-8226 leukemia, 52.4 µM; with U251 CNS, 50.4 µM. Also, the TGI in the assay with UO-31 renal was found to be 69 µM.

In the case of `O=C1CCCC2=C1CC1=C(CCCC1=O)N2c1ccccc1`, the TGI in the assay on A549 NSCLC, in the assay on ACHN renal, with RPMI-8226 leukemia, in the assay on U251 CNS and in the assay with UO-31 renal was above 100 µM each time.

Turning to `CCCCCCC(C)OC(=O)/C=C(\CC(=O)OC(C)CCCCCC)C(=O)OC(C)CCCCCC` (stereo unspecified), the TGI in the assay with A549 NSCLC, with ACHN renal, in the assay with COLO 205 colon, in the assay on HOP-62 NSCLC, in the assay on RPMI-8226 leukemia and with U251 CNS was above 100 µM throughout. Also, in the assay with UO-31 renal, the TGI was above 100 µM.

With `CC(C)OC(=O)[C@@H](O)[C@H](CO)C1=CC([Si](C)(C)c2ccccc2)=CON1`, the TGI with A549 NSCLC, in the assay on ACHN renal, in the assay on COLO 205 colon, in the assay on HOP-62 NSCLC, in the assay on MDA-MB-231 breast and in the assay with MDA-MB-435 was above 100 µM each time. Also, the TGI in the assay on RPMI-8226 leukemia, with U251 CNS and in the assay with UO-31 renal was above 100 µM throughout.

Consider `CCOC(=O)C(C(=O)OCC)=C1NC2(c3ccccc3Nc3ccc(C)cc32)C(C(=O)OC)S1` (stereo unspecified), for which the TGI with A549 NSCLC is above 100 µM; in the assay on ACHN renal it was above 100 µM; in the assay on COLO 205 colon, 57.9 µM; in the assay on HOP-62 NSCLC it was above 100 µM; in the assay with MDA-MB-435, above 100 µM; in the assay with MDA-N, above 100 µM. Moreover, the TGI with RPMI-8226 leukemia, in the assay with U251 CNS and in the assay on UO-31 renal was above 100 µM in each case.

In the case of `CCN(CC)CCCOc1cc2c(cc1OC)C(=O)N1CCC[C@H]1C=N2`, the TGI in the assay on A549 NSCLC is above 100 µM; in the assay with ACHN renal, above 100 µM; in the assay with COLO 205 colon, 38.6 µM; in the assay on HOP-62 NSCLC it was 92.1 µM; with MDA-MB-231 breast, above 100 µM; in the assay with MDA-MB-435, 59.6 µM. Moreover, the TGI was 53.8 µM in the assay on RPMI-8226 leukemia, above 100 µM in the assay on U251 CNS and above 100 µM in the assay on UO-31 renal.

Take `COc1ccccc1NC(=O)O/N=C(/Cl)C(C)C`: the TGI in the assay with A549 NSCLC was 34.4 µM; with ACHN renal it was 17.4 µM; in the assay on COLO 205 colon, 5.09 µM; in the assay on HOP-62 NSCLC, 17.1 µM; with MDA-MB-231 breast, 18.3 µM; with MDA-N, 26.8 µM. For the same compound, the TGI in the assay with RPMI-8226 leukemia stood at 4.71 µM; in the assay with U251 CNS, 30.6 µM; with UO-31 renal, 32.8 µM.

With `C=C1C(=O)O[C@@H]2[C@H](O)[C@@H](C)[C@@H]3C=CC(=O)[C@@]3(C)[C@H](OC(=O)C=C(C)C)[C@H]12`, the TGI in the assay on A549 NSCLC was found to be 10 µM; in the assay with COLO 205 colon it was 1.67 µM; with HOP-62 NSCLC, 11.4 µM; in the assay on RPMI-8226 leukemia, 0.975 µM; in the assay on U251 CNS, 3.5 µM; in the assay on UO-31 renal, 7.23 µM.

With `NC1CC(=O)c2sccc21` (stereo unspecified), the TGI in the assay with A549 NSCLC, in the assay on ACHN renal, in the assay with COLO 205 colon, in the assay on HOP-62 NSCLC, in the assay with MDA-MB-231 breast and in the assay on MDA-MB-435 was above 100 µM in each case. For the same compound, the TGI in the assay on RPMI-8226 leukemia, in the assay with U251 CNS and in the assay on UO-31 renal was above 100 µM throughout.

On to `c1ccc(C2=NCCc3cc4c(cc32)OCO4)cc1`, for which the TGI in the assay with A549 NSCLC, in the assay with COLO 205 colon, with HOP-62 NSCLC, in the assay on MDA-MB-231 breast, in the assay with MDA-MB-435 and in the assay with MDA-N was above 100 µM each time. In the assay on U251 CNS, this compound had a TGI above 100 µM.

In the case of `O=C1c2ccccc2C(=O)c2c(O)ccc(O)c21`, the TGI in the assay on A549 NSCLC, with ACHN renal, in the assay with COLO 205 colon, in the assay with HOP-62 NSCLC, in the assay with RPMI-8226 leukemia and with U251 CNS was above 100 µM in each case. In addition, the TGI in the assay on UO-31 renal is above 100 µM.

`CCOc1ccc2nc(NC(NC(=O)c3cccnc3)(C(F)(F)F)C(F)(F)F)sc2c1`: the TGI in the assay with A549 NSCLC is above 100 µM; with ACHN renal, above 100 µM; in the assay with COLO 205 colon, above 100 µM; in the assay on MDA-MB-231 breast, above 100 µM; with MDA-MB-435 it was 65.4 µM; in the assay with MDA-N, 42.9 µM. Besides, the TGI in the assay on U251 CNS and in the assay with UO-31 renal was above 100 µM each time.
